From US12570603B2, “FABP4/5 inhibitors, methods of use and methods of making” (Novius Therapeutics, LLC, priority 2021, dated 2026) come the findings set out here.

One assay addresses T1, FABP4 (Homo sapiens, UniProt P15090).
T1 construct: made in house
The assay is described as follows: FABP binding assay by fluorescence titration (ANS competition). Conditions: fluorescence competition with ANS; read-out: FABP4 binding. Here is the method:
(§1) This example illustrates a binding assay study used to determine the binding affinity of the various inhibitor compounds disclosed herein with the various FABPs: FABP3, FABP4, FABP5 and FABP7.
(§2) Binding assays for FABP3, FABP4, FABP5 and FABP7 were carried out by fluorescence titrations. FABPs were bacterially expressed and purified and the equilibrium dissociation constants (Kd) that characterize their interactions with different compounds were measured by fluorescence competition assays. The method entails two steps as described in e.g., Lin, Q. et al., “Ligand selectivity of the peroxisome proliferator-activated receptor alpha,” Biochemistry 38, 185-190, doi:10.1021/bi9816094 bi9816094 [pii](1999). In the first step, Kd for the association of the protein with the fluorescent fatty acid probe ANS was measured. Protein ([…]) was titrated with ANS from a concentrated solution in DMSO. Ligand binding was monitored by following the increase in the fluorescence of the ligand upon binding to the protein, and Kd for the association of ANS with the each FABP was computed from titration curves as described in e.g., Norris, A. W. & Li, E., “Fluorometric titration of the CRABPs,” Methods Mol Biol 89, 123-139 (1998)). Kds for binding of non-fluorescent ligands were then measured by monitoring their ability to displace ANS in the binding pocket of the protein. Each FABP was pre-complexed with ANS at 1:1 molar ratio and titrated with the different compounds whose binding was reflected by a decrease in probe fluorescence. Kds were extracted from the EC50 of the competition curve and the measured Kd for ANS.
(§3) Binding assays for FABP3, FABP4, FABP5 and FABP7 were carried out by fluorescence titrations as described in Example 16.

A further assay has as its target T2, FABP5 (Homo sapiens, UniProt Q01469).
T2 construct: made in house
The assay is described as above. Particulars: fluorescence competition with ANS; read-out: FABP5 binding. Here is the method:
as §1, §2, §3

For a further assay, the system named is PPARδ. The assay is described as follows: Transactivation assay, PPRE luciferase reporter in COS-7 cells. The class given is cell-based. Particulars: 5 μM, COS7 cells, FIG. 36A. How it is done:
COS-7 were cultured in 6-well plates and co-transfected with either a luciferase reporter driven by 3 copies of a PPRE and expression vector for either PPARδ, PPARα or PPARγ together with a vector harboring cDNA for β-galactosidase, serving as a transfection control. To test whether FABP4 or FABP5 mediate activation of their cognate receptors PPARγ and PPARδ, respectively, cells were also co-transfected with a plasmid harboring sequence of either FABP4 or FABP5. 18 h post-transfection, cells were placed in a serum-free medium and treated with agonist/compound. 18 h. later, cells were lysed, luciferase activity was assayed (Promega, WI, USA) and corrected for transfection efficiency by the activity of β-galactosidase.
COS-7 were cultured in 6-well plates and co-transfected with either a luciferase reporter driven by 3 copies of a PPRE and expression vector for either PPARδ, PPARα or PPARγ together with a vector harboring cDNA for β-galactosidase, serving as a transfection control. 18 h. post-transfection, cells were placed in a serum-free medium and treated with agonist/compound. 18 h. later, cells were lysed, luciferase activity was assayed (Promega, WI, USA) and corrected for transfection efficiency by the activity of β-galactosidase.
A general note: Reporter assays use an easily measured gene product as a stand-in for the process of interest.

Another assay concerns HepG2 cells. In words: Lipid uptake assay, oleic acid, Nile Red (steatosis model). It counts as cell-based, human. Conditions: OA 1 mM 24 h, compound 4 h before. Here is the method: 2) Hepg2 cells: 5000 cells were plated in 96-well plate. The next day cells were treated with tested compounds for 4 hours and then treated with 1 mM oleic acid for additional 24 hours. Cells were then stained with Nile Red and Dapi and lipid content was quantified using Cytation5 (Agilent).
2) Hepg2 cells: 5000 cells were plated in 96-well plate. The next day cells were treated with tested compounds for 4 hours and then treated with 1 mM oleic acid for additional 24 hours. Cells were then stained with Nile Red and Dapi and lipid content was quantified.

For a further assay, the system named is MB-231 cells. In words: Proliferation assay (Incucyte confluency, 4 days). It counts as cell-based. Particulars: MB-231, serial dilution. Here is the method:
(§4) COS-7, MDA-MB-231, HepG2, LX-2, 3T3-L1, NPG, and MCF7 were cultured in Dulbecco's modified Eagle's medium (DMEM) supplemented with 10% fetal bovine serum (Invitrogen Life Sciences, Carlsbad, CA). MDA-MB-157 and MB-549 cells were cultured in L-Glutamine containing RPMI medium supplemented with 10% fetal calf serum (Invitrogen Life Sciences, Carlsbad, CA). For proliferation assays, 2000 cells were plated in each well of 96-well plate. The next day cells were treated with compounds and incubated in Incucyte for 4 days. Images taken every 4 hours for the duration of the time were analyzed to calculate percentage of confluency in response to the treatments.
(§5) The TNBC line MB-231 was used to calculate the efficacy of compounds B104, B106, B110, B116, and B118 in inhibiting proliferation of the cancer cells. Cells were treated with serial dilution of the compounds or the known FABP5/7 inhibitor SBF-I26 and proliferation was measured in Incucyte by calculating percentage of confluency every 4 hours over 4 days. […] The EC50 for each compound was calculated by fitting the percentage of inhibition vs. the logarithmic transformation of the used concentrations (FIG. 37B and FIG. 37D). Additionally, the effect of B116 and B118 was also tested on proliferation of the human TNBC lines MDA-MB-157 (FIG. 37E) and MB-549 (FIG. 37F).

In another assay the test system is MB-549. The assay is described as follows: Proliferation assay (Incucyte confluency, 4 days). The class given is cell-based, human. Particulars: MB-549, 4 days. How it is done: as §4, §5
For the next assay, the system named is MDA-MB-157. In words: Proliferation assay (Incucyte confluency, 4 days). The class given is cell-based, human. Particulars: MDA-MB-157, 4 days. How it is done:
as §4, §5

Assay [1] deals with NPG human neuroblastoma cells. In words: Neuroblastoma proliferation assay with or without all-trans retinoic acid. The class given is cell-based. Particulars: for proliferation of neuroblastoma cells in combination with atRA: combined with atRA; for proliferation of neuroblastoma cells: compound alone, 4 days. How it is done:
as §4
Activation of PPARβ by atRA shifts the signaling of this vitamin from its cognate receptor RAR that is known to have anti-carcinogenic activities in multiple cancers to the pro-carcinogenic PPARβ. […] Accordingly, NB, human NPG cells were used to test the effect of FABP5 inhibitors on cells' proliferation in combination with atRA. Cells were treated with either B104 or B108 in the presence or absence of atRA.

T1 sequence (P15090 whole entry, species assumed): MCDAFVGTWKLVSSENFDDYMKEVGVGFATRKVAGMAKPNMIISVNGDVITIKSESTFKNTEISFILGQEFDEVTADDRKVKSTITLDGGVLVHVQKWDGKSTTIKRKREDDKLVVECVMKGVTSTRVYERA
T2 sequence (Q01469 whole entry, species assumed): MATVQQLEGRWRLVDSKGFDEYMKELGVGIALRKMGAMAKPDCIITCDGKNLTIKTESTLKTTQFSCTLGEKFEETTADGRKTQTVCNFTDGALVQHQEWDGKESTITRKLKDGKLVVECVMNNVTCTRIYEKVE

On to `CC(C)Oc1cc(NC(=O)CC(C)(C)CC(=O)O)c(Cl)cc1Cl` [Compound B116, 5-((2,4-dichloro-5-isopropoxyphenyl)amino)-3,3-dimethyl-5-oxopentanoic acid], for which the Kd came out at 0.09 µM on FABP4 and 0.003 µM at FABP5. In addition, the “activation of transcription by PPARδ” value with PPARδ is “do not Activate Transcription”. The “uptake of lipid into hepatic cells (Nile Red)” value with HepG2 cells is reported as “markedly inhibited”. The “suppression of growth of TNBC cells compared with SBF-I26” value in the assay with MB-231 cells is “Suppress Growth of TNBC Cells More Effectively than the Commercially Available Inhibitor SBF-I26”. Moreover, the proliferation result in the assay with MB-549 and in the assay with MDA-MB-157 was “inhibited proliferation of both TNBC lines” throughout. The “proliferation of neuroblastoma cells in combination with atRA” value in assay [1] is recorded as “sensitize cells to all-trans retinoic acid treatments”. The “proliferation of neuroblastoma cells” value in assay [1] is listed as “inhibit growth of neuroblastoma”.
Turning to `CC(C)Oc1cc(NC(=O)CC2(CC(=O)O)CCCC2)c(Cl)cc1Cl` [Compound B118, 2-(1-(2-((2,4-dichloro-5-isopropoxyphenyl)amino)-2-oxoethyl)cyclopentyl)acetic acid], the Kd at FABP4 stood at 0.078 µM; on FABP5, 0.002 µM. Also, the “activation of transcription by PPARδ” value in the assay with PPARδ is listed as “do not Activate Transcription”. Moreover, the “uptake of lipid into hepatic cells (Nile Red)” value with HepG2 cells is reported as “markedly inhibited”. Further, the “suppression of growth of TNBC cells compared with SBF-I26” value with MB-231 cells is listed as “Suppress Growth of TNBC Cells More Effectively than the Commercially Available Inhibitor SBF-I26”. Moreover, the proliferation entry with MB-549 and with MDA-MB-157 was “inhibited proliferation of both TNBC lines” in each case. Moreover, the “proliferation of neuroblastoma cells in combination with atRA” value in assay [1] is “sensitize cells to all-trans retinoic acid treatments”. Further, the “proliferation of neuroblastoma cells” value in assay [1] is on record as “inhibit growth of neuroblastoma”.
